According to ChEMBL document CHEMBL1201862, “PubChem BioAssay data set” (2004):
Active and inactive are the calls of the source.

What was measured:
[1] = fluconazole-exposed Candida albicans growth modulators – fluorescence, retest, confirmation (AID 2467); type: functional, cell-based
[2] = Trypanosoma cruzi growth suppression in host cells – NIH3T3 host cells, beta-gal luminescence, confirmation (AID 2044); type: functional, cell-based;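 also: intracellular parasites grown in NIH/3T3 mouse fibroblasts as host cells; luminescent beta-galactosidase reporter signal from transgenic T. cruzi replicating inside host cells; inhibitors lower the luminescence signal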
[3] = NIH3T3 cell viability loss – ATP luminescence, mouse fibroblasts, counter-screen, dose response (AID 2010); type: functional, cell-based;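 also: cells exposed to compound for about 90 hours before reading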
[4] = viability of HCT116 lacking mutant beta-catenin – cell-based, human colon tumor, dose response (AID 1045); type: functional;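 also: HCT116 colon tumor cells with beta catenin knocked out; cells exposed to compound for 60 hours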
[5] = target: Nonstructural protein 1 (Influenza A virus, UniProt Q194T2); type: functional, Influenza A virus (A/California/07/2009(H1N1))
[6] = target: T1, Heat shock factor protein 1 (Mus musculus, UniProt P38532); test: enhancement of HSF1-driven luciferase signal – cell-based, NIH3T3, luminescence, dose retest, confirmation (AID 435004); type: functional;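 also: stress induced by proteasome inhibitor MG132 added 30 min after compound; luciferase reporter driven by HSF1 response element in NIH3T3 cells; actives raise luminescence as potentiators of the MG132 stress response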
T1 sequence (P38532 whole entry): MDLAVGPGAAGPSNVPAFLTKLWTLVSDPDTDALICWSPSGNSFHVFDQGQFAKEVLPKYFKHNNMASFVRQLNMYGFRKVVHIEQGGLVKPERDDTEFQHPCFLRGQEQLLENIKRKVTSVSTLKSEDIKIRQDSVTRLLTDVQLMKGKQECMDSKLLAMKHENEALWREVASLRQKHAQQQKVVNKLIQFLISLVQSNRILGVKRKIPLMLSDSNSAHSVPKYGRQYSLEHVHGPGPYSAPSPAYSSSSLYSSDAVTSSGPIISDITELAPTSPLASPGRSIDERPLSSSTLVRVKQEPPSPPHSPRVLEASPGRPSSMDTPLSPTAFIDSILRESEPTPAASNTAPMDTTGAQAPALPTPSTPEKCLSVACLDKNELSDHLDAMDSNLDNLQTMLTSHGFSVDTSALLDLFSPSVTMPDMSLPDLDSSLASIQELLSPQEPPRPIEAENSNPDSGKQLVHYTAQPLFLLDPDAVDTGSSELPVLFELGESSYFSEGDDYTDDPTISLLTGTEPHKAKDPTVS

[7] = target: Hexokinase HKDC1 (Homo sapiens, UniProt Q2TB90); test: inhibition of HKDC1 glucose phosphorylation – biochemical, W721R variant, dose response (AID 504729); type: functional
[8] = system: Vero; test: cells; type: functional; details: Chlorocebus sabaeus
[9] = target: Fatty acid synthase (Homo sapiens, UniProt P49327); test: inhibition of human FAS-TE enzyme activity – biochemical, endpoint fluorescence intensity, uHTS hits, dose response (AID 624327); type: functional;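 also: fluorescence from hydrolysis of an O-methyl fluorescein acyl ester substrate by the enzyme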
[10] = toxicity toward HepG2 liver cells – cell-based, plate reader, cherry-pick, antagonist series, cytotoxicity control, dose response (AID 743416); type: functional
[11] = HIV-1 Vif–A3G interaction blockers – biochemical, TR-FRET, GST-Vif 1-94, biotin-A3G peptide, dose response retest, primary screen (AID 1117319); type: functional;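 also: TR-FRET signal of purified GST-Vif binding a biotinylated A3G peptide; inhibitors lower the FRET signal by blocking Vif and A3G binding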
[12] = system: HEK293; test: cells; details: Homo sapiens
[13] = system: HEK293; test: cells; details: Homo sapiens; remark: listed apart in the source
[14] = target: T2, Apoptotic protease-activating factor 1 (Homo sapiens, UniProt O14727); type: functional
T2 sequence (O14727 whole entry): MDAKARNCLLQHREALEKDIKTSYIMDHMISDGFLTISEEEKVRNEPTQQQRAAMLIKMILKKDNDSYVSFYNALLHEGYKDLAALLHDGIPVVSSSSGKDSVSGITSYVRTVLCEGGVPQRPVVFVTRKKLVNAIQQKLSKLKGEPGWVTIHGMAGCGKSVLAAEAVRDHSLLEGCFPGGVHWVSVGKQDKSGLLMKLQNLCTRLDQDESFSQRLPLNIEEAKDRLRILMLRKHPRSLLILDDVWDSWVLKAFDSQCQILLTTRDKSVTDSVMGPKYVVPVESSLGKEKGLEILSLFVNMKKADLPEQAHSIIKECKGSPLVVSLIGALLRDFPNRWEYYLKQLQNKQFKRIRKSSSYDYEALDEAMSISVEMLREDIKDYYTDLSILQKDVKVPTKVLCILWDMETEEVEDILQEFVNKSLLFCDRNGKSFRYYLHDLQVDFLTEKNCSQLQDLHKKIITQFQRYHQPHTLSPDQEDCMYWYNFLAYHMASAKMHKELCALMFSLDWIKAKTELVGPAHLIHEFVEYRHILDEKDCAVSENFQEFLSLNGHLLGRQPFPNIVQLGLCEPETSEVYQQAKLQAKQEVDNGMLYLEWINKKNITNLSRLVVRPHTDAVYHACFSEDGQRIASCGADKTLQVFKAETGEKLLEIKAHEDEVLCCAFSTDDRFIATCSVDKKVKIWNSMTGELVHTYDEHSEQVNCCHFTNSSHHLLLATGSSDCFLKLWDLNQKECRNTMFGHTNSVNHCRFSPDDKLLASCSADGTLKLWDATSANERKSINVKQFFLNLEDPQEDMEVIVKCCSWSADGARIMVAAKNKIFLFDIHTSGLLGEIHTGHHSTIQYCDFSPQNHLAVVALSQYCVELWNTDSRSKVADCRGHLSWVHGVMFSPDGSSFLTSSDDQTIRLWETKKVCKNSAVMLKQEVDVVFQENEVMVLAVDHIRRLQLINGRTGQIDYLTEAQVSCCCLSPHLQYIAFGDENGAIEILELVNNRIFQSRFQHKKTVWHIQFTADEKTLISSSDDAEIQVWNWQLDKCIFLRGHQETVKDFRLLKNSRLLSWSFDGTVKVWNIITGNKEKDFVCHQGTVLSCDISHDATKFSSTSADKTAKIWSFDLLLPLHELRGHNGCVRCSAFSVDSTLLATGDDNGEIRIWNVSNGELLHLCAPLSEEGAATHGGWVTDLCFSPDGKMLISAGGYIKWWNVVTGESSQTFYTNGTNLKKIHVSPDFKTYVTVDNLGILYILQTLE

[15] = target: Kallikrein-7 (Homo sapiens, UniProt P49862); test: Fluorescence Intensity-based biochemical primary high throughput dose response assay to identify activators of kallikrein-7 (K7) zymogen.
Sequence of Kallikrein-7 (P49862 whole entry): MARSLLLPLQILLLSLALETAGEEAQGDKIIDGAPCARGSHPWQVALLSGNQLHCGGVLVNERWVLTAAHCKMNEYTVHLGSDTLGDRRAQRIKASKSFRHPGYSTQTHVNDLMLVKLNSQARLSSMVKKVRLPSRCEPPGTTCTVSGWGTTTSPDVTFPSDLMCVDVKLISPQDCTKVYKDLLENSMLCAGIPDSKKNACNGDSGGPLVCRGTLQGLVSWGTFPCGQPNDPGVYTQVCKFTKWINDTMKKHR

Sequence of Hexokinase HKDC1 (Q2TB90 whole entry): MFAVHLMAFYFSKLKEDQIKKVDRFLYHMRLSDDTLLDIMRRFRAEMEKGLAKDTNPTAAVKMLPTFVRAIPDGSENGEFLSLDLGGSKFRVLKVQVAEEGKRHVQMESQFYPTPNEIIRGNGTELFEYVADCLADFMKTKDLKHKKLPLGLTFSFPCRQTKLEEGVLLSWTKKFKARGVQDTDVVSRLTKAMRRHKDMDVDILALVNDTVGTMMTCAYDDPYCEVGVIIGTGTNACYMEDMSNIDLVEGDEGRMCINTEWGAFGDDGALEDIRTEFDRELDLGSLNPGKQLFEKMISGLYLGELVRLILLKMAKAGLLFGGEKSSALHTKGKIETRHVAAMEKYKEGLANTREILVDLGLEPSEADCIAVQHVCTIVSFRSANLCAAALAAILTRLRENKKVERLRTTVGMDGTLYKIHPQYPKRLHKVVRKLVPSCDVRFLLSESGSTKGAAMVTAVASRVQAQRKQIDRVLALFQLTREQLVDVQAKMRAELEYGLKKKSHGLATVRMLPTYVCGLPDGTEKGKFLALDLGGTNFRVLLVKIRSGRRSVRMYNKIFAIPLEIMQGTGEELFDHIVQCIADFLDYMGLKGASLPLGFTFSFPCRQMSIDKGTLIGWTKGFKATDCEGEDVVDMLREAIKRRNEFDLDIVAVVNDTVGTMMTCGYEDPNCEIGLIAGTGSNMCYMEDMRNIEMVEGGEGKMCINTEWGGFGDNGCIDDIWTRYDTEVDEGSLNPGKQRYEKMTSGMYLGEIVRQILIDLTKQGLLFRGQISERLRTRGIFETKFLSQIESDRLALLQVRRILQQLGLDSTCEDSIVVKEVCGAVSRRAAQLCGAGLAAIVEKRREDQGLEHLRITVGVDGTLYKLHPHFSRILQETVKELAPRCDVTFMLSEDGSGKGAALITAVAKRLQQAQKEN
Sequence of Fatty acid synthase (P49327 whole entry): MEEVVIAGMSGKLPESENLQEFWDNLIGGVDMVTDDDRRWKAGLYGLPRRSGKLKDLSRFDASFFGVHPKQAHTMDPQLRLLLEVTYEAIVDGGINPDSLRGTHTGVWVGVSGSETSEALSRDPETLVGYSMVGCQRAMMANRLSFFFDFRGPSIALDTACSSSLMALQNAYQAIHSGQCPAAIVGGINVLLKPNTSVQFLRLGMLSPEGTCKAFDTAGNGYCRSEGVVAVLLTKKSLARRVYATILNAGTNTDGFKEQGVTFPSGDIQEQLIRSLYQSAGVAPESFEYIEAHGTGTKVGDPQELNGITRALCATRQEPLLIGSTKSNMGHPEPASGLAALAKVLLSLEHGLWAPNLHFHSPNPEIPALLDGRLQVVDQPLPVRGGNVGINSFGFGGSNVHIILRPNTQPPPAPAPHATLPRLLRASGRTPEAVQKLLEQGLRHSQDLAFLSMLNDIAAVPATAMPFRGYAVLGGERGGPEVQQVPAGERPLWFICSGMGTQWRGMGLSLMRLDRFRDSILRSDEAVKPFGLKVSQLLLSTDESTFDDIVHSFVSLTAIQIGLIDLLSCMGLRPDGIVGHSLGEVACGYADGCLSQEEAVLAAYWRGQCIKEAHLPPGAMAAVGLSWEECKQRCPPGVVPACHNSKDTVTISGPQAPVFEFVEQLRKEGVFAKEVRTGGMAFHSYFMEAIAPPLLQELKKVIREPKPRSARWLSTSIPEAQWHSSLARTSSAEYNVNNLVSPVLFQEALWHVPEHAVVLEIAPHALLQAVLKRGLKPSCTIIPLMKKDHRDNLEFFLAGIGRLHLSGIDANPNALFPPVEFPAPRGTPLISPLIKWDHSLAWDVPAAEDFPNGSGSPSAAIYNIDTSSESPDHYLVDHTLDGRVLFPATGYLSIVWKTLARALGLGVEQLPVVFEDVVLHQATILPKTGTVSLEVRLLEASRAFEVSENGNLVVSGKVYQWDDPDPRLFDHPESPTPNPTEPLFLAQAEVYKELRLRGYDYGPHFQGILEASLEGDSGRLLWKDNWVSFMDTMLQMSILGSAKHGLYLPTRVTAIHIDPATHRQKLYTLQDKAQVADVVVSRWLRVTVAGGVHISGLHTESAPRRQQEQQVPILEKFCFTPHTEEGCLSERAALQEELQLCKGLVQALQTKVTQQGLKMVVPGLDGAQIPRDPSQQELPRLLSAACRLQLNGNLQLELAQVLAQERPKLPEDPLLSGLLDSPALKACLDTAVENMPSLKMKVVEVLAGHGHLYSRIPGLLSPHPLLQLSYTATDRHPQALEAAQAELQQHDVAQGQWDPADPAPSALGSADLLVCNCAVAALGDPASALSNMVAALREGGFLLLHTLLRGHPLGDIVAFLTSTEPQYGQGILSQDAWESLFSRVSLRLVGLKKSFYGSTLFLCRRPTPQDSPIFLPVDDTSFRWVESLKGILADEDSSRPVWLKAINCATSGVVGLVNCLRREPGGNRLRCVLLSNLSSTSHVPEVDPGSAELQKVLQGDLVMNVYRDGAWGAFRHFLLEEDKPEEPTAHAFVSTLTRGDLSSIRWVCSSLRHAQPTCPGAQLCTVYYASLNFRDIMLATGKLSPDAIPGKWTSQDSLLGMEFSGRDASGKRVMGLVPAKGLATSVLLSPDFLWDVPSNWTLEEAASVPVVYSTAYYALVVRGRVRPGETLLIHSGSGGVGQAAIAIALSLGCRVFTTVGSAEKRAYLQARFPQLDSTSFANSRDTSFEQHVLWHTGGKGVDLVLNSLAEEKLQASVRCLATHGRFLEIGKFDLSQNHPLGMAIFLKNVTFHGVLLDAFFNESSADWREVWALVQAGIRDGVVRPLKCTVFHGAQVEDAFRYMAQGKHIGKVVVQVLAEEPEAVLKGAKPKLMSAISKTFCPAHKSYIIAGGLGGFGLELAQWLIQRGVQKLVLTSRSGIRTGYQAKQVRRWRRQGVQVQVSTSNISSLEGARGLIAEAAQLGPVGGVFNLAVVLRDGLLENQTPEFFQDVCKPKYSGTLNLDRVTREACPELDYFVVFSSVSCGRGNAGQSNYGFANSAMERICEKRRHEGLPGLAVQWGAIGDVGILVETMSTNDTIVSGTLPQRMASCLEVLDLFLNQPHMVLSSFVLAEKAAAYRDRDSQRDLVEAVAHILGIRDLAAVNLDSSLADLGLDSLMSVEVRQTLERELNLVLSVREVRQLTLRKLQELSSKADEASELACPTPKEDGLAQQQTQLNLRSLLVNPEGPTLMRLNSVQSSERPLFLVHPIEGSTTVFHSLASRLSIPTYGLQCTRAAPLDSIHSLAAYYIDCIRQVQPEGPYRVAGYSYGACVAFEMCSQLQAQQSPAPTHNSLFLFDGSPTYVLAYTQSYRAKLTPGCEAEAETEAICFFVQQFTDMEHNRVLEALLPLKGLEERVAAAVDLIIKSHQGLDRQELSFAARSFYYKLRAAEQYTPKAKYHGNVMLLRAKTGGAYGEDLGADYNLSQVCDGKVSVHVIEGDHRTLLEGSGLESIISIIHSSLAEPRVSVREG
Sequence of Nonstructural protein 1 (Q194T2 whole entry): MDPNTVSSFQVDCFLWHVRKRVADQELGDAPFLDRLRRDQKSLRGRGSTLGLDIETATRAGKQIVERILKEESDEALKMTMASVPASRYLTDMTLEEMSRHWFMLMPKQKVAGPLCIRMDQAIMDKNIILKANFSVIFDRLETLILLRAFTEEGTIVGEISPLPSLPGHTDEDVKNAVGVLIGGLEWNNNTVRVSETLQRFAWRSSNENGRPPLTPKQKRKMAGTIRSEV

Compound	EC50 [1]	EC50 [2]	EC50 [3]	EC50 [4]	IC50 [5]	EC50 [6]	IC50 [7]	CC50 [8]	IC50 [9]	AC50 [10]	IC50 [11]	EC50 [12]	EC50 [13]	IC50 [14]	EC50 [15]
O=[N+]([O-])c1ccc(Sc2nc3ccccc3o2)c([N+](=O)[O-])c1	1.37 µM (active)	1.27 µM (active)	1.81 µM (active)	5.57 µM (active)	34.2 µM (active)	11.7 µM (active)	37.4 µM (inactive)	4.12 µM (active)	15.8 µM (active)	6.16 µM (active)	> 100 µM (active)	> 59.6 µM (inactive)	> 59.6 µM (inactive)	–	–
CCC(COC)Oc1cc(NCc2ccccc2)c2ncn(C(C)C)c2c1 (configuration not stated)	–	–	–	–	–	–	–	–	–	19.6 µM (active)	–	–	–	16.7 µM (active)	–
O=c1[nH]c(N2CCOCC2)cc2ccccc12	–	–	–	–	–	–	–	–	–	–	–	–	–	8.83 µM (active)	> 69.6 µM (inactive)
